Earlier results as cited in patent publication US20050112093A1, “Combination therapy for HCV infection” (priority 2003, published 2005).

What was measured:
[1] = majority of patients, over the course of treatment
HCV [2] = system: HCV
HCV [3] = system: HCV; remark: listed apart in the source

Molecule | mean decrease in hemoglobin [1] [g/dL] | serum HCV RNA levels (HCV [2]; ribavirin treatment alone) | liver enzyme levels (HCV [2]; ribavirin used alone, during treatment, return to baseline when treatment is discontinued) | patients achieving a sustained virological response (SVR) (HCV [3]; chronic HCV infection, following six months of therapy) [%] | SVR (HCV [3]; treatment naïve patients, IFN-α alone, 6 months, the latter (upper) value representing 48 weeks of treatment)
NC(=O)c1ncn([C@@H]2O[C@H](CO)[C@@H](O)[C@H]2O)n1 [ribavirin, 1-beta-D-ribofuranosyl-1H-1,2,4-triazole-3-carboxamide] | 2 to 3 | only minimally and transiently decreases serum HCV RNA levels | decreases liver enzyme levels in most patients during treatment |  | 
IFN-α |  |  |  | 20 | 6-17%
